In patent EP2970215B1, “PYRROLIDINE DERIVATIVES, PHARMACEUTICAL COMPOSITIONS CONTAINING THEM, AND THEIR USE IN THERAPY” (AbbVie Deutschland GmbH & Co. KG, priority 2013, dated 2014):

biological target: T1, human GlyT1c transporter (Homo sapiens, UniProt P48067); experiment: Radioligand binding assay using recombinant CHO cell membranes expressing human GlyT1; settings: radioligand binding to human GlyT1c transporter-expressing membranes
T1 construct: expressed in transfected cells; host or cells: CHO cells (recombinant; line hGlyT1c_5_CHO is named for the uptake assay)
T1 sequence (P48067 1-706): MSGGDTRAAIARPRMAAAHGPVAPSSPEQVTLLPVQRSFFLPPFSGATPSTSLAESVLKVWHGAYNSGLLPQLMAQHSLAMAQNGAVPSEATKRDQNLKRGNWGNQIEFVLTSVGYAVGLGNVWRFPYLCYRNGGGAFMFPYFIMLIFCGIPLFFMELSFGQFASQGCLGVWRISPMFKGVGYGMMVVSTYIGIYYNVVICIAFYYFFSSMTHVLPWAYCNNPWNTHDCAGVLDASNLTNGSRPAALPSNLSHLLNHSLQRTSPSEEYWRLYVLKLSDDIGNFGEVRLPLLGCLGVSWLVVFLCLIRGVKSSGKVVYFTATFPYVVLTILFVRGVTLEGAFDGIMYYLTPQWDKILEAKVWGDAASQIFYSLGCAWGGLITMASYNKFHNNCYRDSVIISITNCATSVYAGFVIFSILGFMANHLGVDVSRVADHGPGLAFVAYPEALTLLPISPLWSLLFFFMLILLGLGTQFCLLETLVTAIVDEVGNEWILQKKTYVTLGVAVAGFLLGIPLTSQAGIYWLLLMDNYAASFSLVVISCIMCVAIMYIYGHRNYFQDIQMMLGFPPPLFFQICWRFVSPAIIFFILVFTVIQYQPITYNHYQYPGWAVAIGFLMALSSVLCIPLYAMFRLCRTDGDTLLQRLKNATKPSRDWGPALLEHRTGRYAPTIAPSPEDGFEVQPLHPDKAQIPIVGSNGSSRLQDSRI
Source text: 2. Radioligand binding assays using recombinant CHO cell membranes expressing human GlyT1: […]

SMILES | Ki
Cn1cnc(S(=O)(=O)N2C[C@@H](Nc3ccnc(F)c3)[C@H](c3ccccc3)C2)c1 (relative stereo) [Example 236, 2-fluoro-N-{trans-1-[(1-methyl-1H-imidazol-4-yl)sulfonyl]-4-phenylpyrrolidin-3-yl}pyridin-4-amine] | ≤ 10 µM
Cc1cccc(N[C@@H]2CN(S(=O)(=O)c3cn(C)cn3)C[C@H]2c2ccccc2)c1 (relative stereo) [Example 58, trans-1-[(1-methyl-1H-imidazol-4-yl)sulfonyl]-N-(3-methylphenyl)-4-phenylpyrrolidin-3-amine] | ≤ 0.1 µM
CCCCC(O)C(=O)N[C@H]1CN(S(=O)(=O)c2cn(C)cn2)C[C@@H]1c1ccc(F)cc1 (stereo partly drawn) [Example 673, N-{(3R,4S)-4-(4-fluorophenyl)-1-[(1-methyl-1H-imidazol-4-yl)sulfonyl]pyrrolidin-3-yl}-2-hydroxyhexanamide] | ≤ 1 µM
Cn1cnc(S(=O)(=O)N2C[C@H](NC(=O)Nc3cccc(F)c3)[C@@H](c3ccc(F)cc3)C2)c1 [Example 703, 1-(3-fluorophenyl)-3-{(3R,4S)-4-(4-fluorophenyl)-1-[(1-methyl-1H-imidazol-4-yl)sulfonyl]pyrrolidin-3-yl}urea] | ≤ 1 µM
Cn1cnc(S(=O)(=O)N2C[C@@H](COc3cccc(C(F)(F)F)c3)[C@H](c3ccc(F)cc3)C2)c1 (relative stereo) [Example 293, 4-{[trans-3-(4-fluorophenyl)-4-{[3-(trifluoromethyl)phenoxy]methyl}pyrrolidin-1-yl]sulfonyl}-1-methyl-1H-imidazole] | ≤ 0.1 µM

Now from value to compound:

Ki | SMILES
≤ 1 µM | Cn1cnc(S(=O)(=O)N2C[C@H](Nc3ccc4occc4c3)[C@@H](c3ccccc3)C2)c1 [Example 660, (3R,4S)-N-(1-benzofuran-5-yl)-1-[(1-methyl-1H-imidazol-4-yl)sulfonyl]-4-phenylpyrrolidin-3-amine]
≤ 0.1 µM | Cn1cnc(S(=O)(=O)N2C[C@H](Nc3cc(Cl)ncn3)[C@@H](c3ccccc3)C2)c1 [Example 606, 6-chloro-N-{(3R,4S)-1-[(1-methyl-1H-imidazol-4-yl)sulfonyl]-4-phenylpyrrolidin-3-yl}pyrimidin-4-amine]
≤ 0.1 µM | CCC/C=C/CN[C@H]1CN(S(=O)(=O)c2cn(C)cn2)C[C@@H]1c1ccccc1 [Example 547, (3R,4S)-N-[(2E)-hex-2-en-1-yl]-1-[(1-methyl-1H-imidazol-4-yl)sulfonyl]-4-phenylpyrrolidin-3-amine]
≤ 0.1 µM | Cn1cnc(S(=O)(=O)N2CC(Nc3ccc(F)c(C(F)F)c3)C(c3ccc(F)cc3)C2)c1 (stereo not shown) [Example 310, N-[3-(difluoromethyl)-4-fluorophenyl]-4-(4-fluorophenyl)-1-[(1-methyl-1H-imidazol-4-yl)sulfonyl]pyrrolidin-3-amine]
≤ 1 µM | Cn1cnc(S(=O)(=O)N2C[C@H](NCC3(C)CCCCC3)[C@@H](c3ccccc3)C2)c1 [Example 467, (3R,4S)-N-[(1-methylcyclohexyl)methyl]-1-[(1-methyl-1H-imidazol-4-yl)sulfonyl]-4-phenylpyrrolidin-3-amine]
≤ 1 µM | Cc1ccccc1CN[C@@H]1CN(S(=O)(=O)c2cn(C)cn2)C[C@H]1c1ccc(F)cc1 (relative stereo) [Example 153, trans-4-(4-fluorophenyl)-N-(2-methylbenzyl)-1-[(1-methyl-1H-imidazol-4-yl)sulfonyl]pyrrolidin-3-amine]
≤ 1 µM | CCCNCCO[C@@H]1CN(S(=O)(=O)c2cn(C)cn2)C[C@H]1c1ccc(F)cc1 (relative stereo) [Example 688, N-[2-({Trans-4-(4-fluorophenyl)-1-[(1-methyl-1H-imidazol-4-yl)sulfonyl]pyrrolidin-3-yl}oxy)ethyl]propan-1-amine]

same assay, conditions: radioligand binding, recombinant CHO cell membranes expressing human GlyT1c

SMILES | Ki
Cn1cc(S(=O)(=O)N2C[C@H](Nc3ccc(F)c(Cl)c3)[C@@H](c3ccc(F)cc3)C2)nn1 [Example 842, (3R,4S)-N-(3-chloro-4-fluorophenyl)-4-(4-fluorophenyl)-1-[(1-methyl-1H-1,2,3-triazol-4-yl)sulfonyl]pyrrolidin-3-amine] | ≤ 0.01 µM
